1 compound from PMC9743128, “Phenotype-based screening rediscovered benzopyran-embedded microtubule inhibitors as anti-neuroinflammatory agents by modulating the tubulin–p65 interaction” (Experimental & Molecular Medicine, 2022) can be followed below.

Some results are limits rather than exact numbers.

Holding throughout (assay type): cell-based, murine
The test system of data set [1] is J774A.1 cells. Briefly: Flow cytometry cell cycle analysis (PI staining). As for the experimental part: NF-κB SEAP reporter HEK293T cell (Invivogen; hkb-mmcl) were seeded 10,000 cells/well at white 96-well plate (Falcon; 353296). HEK293 cells were transfected with a 1 to 1 ratio of 3xAP1pGL3 (Addgene; #40342) and pRL-TK (Promega; E2241) mixture using LTX plus (Invitrogen; 15338100) and opti-MEM (Gibco; 31985070) according to the manufacturer's protocol. After 24-h compound treatment or the overexpression of α-tubulin or GFP, 40 μl of the medium was transferred to a 96-well plate and mixed with 180 μl of quanti-blue solution (Invitrogen; rep-qbs) for the measurement of NF-κB activation. We measured the absorbance at 655 nm after 2-h incubation at 37 °C. To measure the AP-1 activation, cells were washed with PBS and lysed with 20 μl of 1× passive lysis buffer for 15 min. Luciferase signals were measured by dual-luciferase reporter assay system (Progema; E1980) using a microplate reader (BioTek; Synergy HTX). Expression levels of SEAP and AP-1 were normalized by renilla luciferase signal.
J774A.1 cells were treated with each compound for the designated time and dose. The cells were trypsinized and re-suspended in PBS containing 2% FBS (Gibco; #16000-044). To measure cell cycle arrest, the same number of the re-suspended cells was stained with propidium iodide (PI) (Abcam; ab14085) according to the manufacturer’s protocol. […]
For orientation: In flow cytometry, cells or beads pass a laser one at a time.

Data set [2] concerns p65 nuclear translocation in J774A.1 and RAW264.7 cells. Briefly: p65 nuclear translocation by immunofluorescence staining. The note with it: 10 μM for 1 h, then LPS; LPS alone 80%, basal 40%. The protocol:
To monitor p65 translocation, J774A.1 cells were treated with compounds for 1 h, followed by LPS (100 ng/ml) treatment for 30 min. The cells were fixed with 4% paraformaldehyde (Sigma; #158127) in PBS (w/v) for 30 min at room temperature. After washing with 1× PBS (Welgene; ML008-02) three times, the fixed cells were permeabilized with PBS containing 0.1% Triton X-100 for 10 min. The cells were washed with 1× PBS three times and then blocked with 4% bovine serum albumin (MP Biomedicals; #0216006980) in PBS (w/v) for 1 h. The cells were incubated with mouse anti-p65 antibody (Santa Cruz; sc-8008, 1:200 diluted in 1% BSA–PBS) at 4 °C overnight and washed with PBS three times. FITC-labeled goat anti-mouse IgG antibody (Abcam; ab6785, 1:200 diluted in 1% BSA–PBS) was added to the sample and incubated for 1 h at room temperature. The remaining antibodies were finally washed three times with PBS. Nuclei were stained with Hoechst 33342 (Thermo; #62249). The cellular p65 proteins were imaged by fluorescence microscopy (GE Healthcare; Delta Vision) and quantified by the line profiling method.
During activation of the NF-κB signaling pathway, IκB is phosphorylated and degraded by proteasomes. The released p65 from IκB is translocated to the nucleus, inducing the transcription of target genes for inflammatory responses. Therefore, we monitored the translocation of p65 upon SB26019 treatment in J774A.1 and RAW264.7 murine macrophage cells stained with fluorescently labeled antibodies. […]

The test system of data set [3] is α-tubulin monomers in RAW264.7 cells. Briefly: Tubulin monomer/polymer isolation and western blot. Particulars: 10 μM for 6 h. A general note: In western blotting, separated proteins are transferred to a membrane and probed.
Procedure: To separate soluble tubulin monomers from insoluble tubulin polymers, cells were washed very gently with PBS and incubated for 10 min at room temperature with a microtubule-stabilizing buffer {10% Tris–HCl (pH 6.8) (Acros; #77-86-1), 10% glycerol (Biosesang; GR1018-500-00), 1 mM EGTA (Sigma; E3889), 1 mM MgSO4 (Sigma; M2773), 0.1 mM EDTA (Acros; #409971000), and 1× protease inhibitor cocktail} containing additional 0.1% Triton X-100 (Sigma; T8787). The remaining insoluble tubulin polymers on the culture dish were scraped with microtubule-stabilizing buffer containing an additional 0.5% SDS (Sigma; L3771).
Data set [4] has as its system TNF-α secretion in BV-2 cells. Briefly: TNF-α ELISA of culture medium after LPS. The note with it: 10 μM. As for the experimental part: BV-2 and RAW264.7 cells were treated with compounds in the absence or presence of LPS (100 ng/ml). After 24 h, TNF-α levels in the culture medium were measured using a TNF-α ELISA kit (R&D Systems; DY410) according to the manufacturer’s protocol. Briefly, capture antibodies were coated on 96-well Maxisorp Nunc-Immuno plates (Thermo; #439454) for 1 h and washed with PBS containing 0.05% Tween-20 (PBST) three times. The plates were blocked with 1% BSA-PBS for 1 h and washed with PBST three times. Culture medium was added to the 96-well plate for 1 h and washed with PBST three times. Biotinylated detection antibody was added to the 96-well plate for 1 h and washed with PBST three times. Streptavidin–horseradish peroxidase (HRP) was added to the plate for 20 min and washed with PBST three times. After 20 min of incubation with TMB substrate (Thermo; #002023), TMB oxidation was stopped by adding 2 N H2SO4. The absorbance at 450 nm, 540 nm, and 570 nm was measured using a microplate reader (BioTek; Synergy). The following formula was used to calculate the net signal: OD450nm–(OD540nm + OD570nm)/2.
Fig. 2 SB26019 has anti-inflammatory activity via the accumulation of tubulin monomers. SB26019 (10 μM for 6 h) regulated the mRNA levels (a) and protein levels (b) of downstream genes of NF-κB in BV-2 murine microglial cells more efficiently than the other known tubulin modulators (n = 3). c Both tubulin modulators (10 μM for 6 h) and transient Flag-tagged α-tubulin overexpression increased the total amount of tubulin monomers. d Quantification of the amount of tubulin polymer vs. monomer in (c). Tubulin modulators (10 μM for 6 h) and transient Flag-tagged α-tubulin overexpression proportionally regulated the NF-κB signaling pathway at the mRNA (e) and protein levels f in RAW264.7 murine macrophage cells (n = 3). Data are presented as the mean ± SD (ns, not significant, p > 0.05; *p < 0.05; **p < 0.01; ***p < 0.001).

As to `COc1ccc2c(c1O)OC(C)(C)C=C2c1cccc2c1oc1ccccc12` [Compound 8], in data set [1], the Cell cycle arrest entry was “no cell cycle arrest”. Moreover, the “p65 nuclear translocation in the presence of LPS” value in data set [2] is listed as below 60%. Also, the “Total α-tubulin monomers” value in data set [3] is recorded as “increased the total α-tubulin monomers”. The “TNF-α levels compared to that of the DMSO control” value in data set [4] was below 50%.
